Laboratory results taken from US12344600B2, “c-Myc mRNA translation modulators and uses thereof in the treatment of cancer” (Anima Biotech Inc., priority 2022, dated 2025).

These molecules were tested on c-Myc (assay: c-Myc immunofluorescence assay). Conditions: A549 cells, 24 hours, anti-c-Myc immunofluorescence.
Type: cell-based, human
In short: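 A549 NSCLC cells grown 48 h, then treated 24 h with increasing compound concentrations; fixed in 4% paraformaldehyde, stained with anti-c-Myc antibody plus fluorescent secondary and DAPI. Per-cell c-Myc fluorescence quantified by high-content imaging at 20×; dose-response fitted by logistic regression to give EC50.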

Row | SMILES | Myc Efficacy (−LogEC50)
1 | COc1ccc(-c2noc(N3CCC(C(=O)NCC4CCN(CC5CCSCC5)C4)CC3)n2)cc1 (centres unmarked) [Compound 354, 1-(3-(4-methoxyphenyl)-1,2,4-oxadiazol-5-yl)-N-((1-((tetrahydro-2H-thiopyran-4-yl)methyl)pyrrolidin-3-yl)methyl)piperidine-4-carboxamide] | ++ (++ ≥5 and <6)
2 | COc1ccc(-c2noc(N3CCC(C(=O)NCC4CCN(CC5CCOCC5)C4)CC3)n2)cc1 (centres unmarked) [Compound 355, 1-(3-(4-methoxyphenyl)-1,2,4-oxadiazol-5-yl)-N-((1-((tetrahydro-2H-pyran-4-yl)methyl)pyrrolidin-3-yl)methyl)piperidine-4-carboxamide] | + (+ >3 and <5)
3 | COc1ccc(-c2noc(N3CCC(C(=O)NCC4CCN(Cc5cccnc5)C4)CC3)n2)cc1 (centres unmarked) [Compound 356, 1-(3-(4-methoxyphenyl)-1,2,4-oxadiazol-5-yl)-N-((1-(pyridin-3-ylmethyl)pyrrolidin-3-yl)methyl)piperidine-4-carboxamide] | ++ (++ ≥5 and <6)
4 | COc1ccc(-c2noc(N3CCC(C(=O)NCC4CCN(Cc5ccsc5)C4)CC3)n2)cc1 (centres unmarked) [Compound 357, 1-(3-(4-methoxyphenyl)-1,2,4-oxadiazol-5-yl)-N-((1-(thiophen-3-ylmethyl)pyrrolidin-3-yl)methyl)piperidine-4-carboxamide] | ++ (++ ≥5 and <6)
5 | COc1ccc(-c2noc(N3CCC(C(=O)NCC4CCN(Cc5ccccc5F)C4)CC3)n2)cc1 (centres unmarked) [Compound 358, N-((1-(2-fluorobenzyl)pyrrolidin-3-yl)methyl)-1-(3-(4-methoxyphenyl)-1,2,4-oxadiazol-5-yl)piperidine-4-carboxamide] | ++ (++ ≥5 and <6)
6 | COc1ccc(-c2noc(N3CCC(C(=O)NCC4CCN(Cc5ccncc5F)C4)CC3)n2)cc1 (centres unmarked) [Compound 359, N-((1-((3-fluoropyridin-4-yl)methyl)pyrrolidin-3-yl)methyl)-1-(3-(4-methoxyphenyl)-1,2,4-oxadiazol-5-yl)piperidine-4-carboxamide] | ++ (++ ≥5 and <6)
7 | COc1ccc(-c2noc(N3CCC(C(=O)NCC4CCN(Cc5cscn5)C4)CC3)n2)cc1 (centres unmarked) [Compound 360, 1-(3-(4-methoxyphenyl)-1,2,4-oxadiazol-5-yl)-N-((1-(thiazol-4-ylmethyl)pyrrolidin-3-yl)methyl)piperidine-4-carboxamide] | + (+ >3 and <5)
8 | COc1ccc(-c2noc(N3CCC(C(=O)NCC4CCN(CC5CCCCO5)C4)CC3)n2)cc1 (centres unmarked) [Compound 361, 1-(3-(4-methoxyphenyl)-1,2,4-oxadiazol-5-yl)-N-((1-((tetrahydro-2H-pyran-2-yl)methyl)pyrrolidin-3-yl)methyl)piperidine-4-carboxamide] | ++ (++ ≥5 and <6)
9 | COc1ccc(-c2noc(N3CCC(C(=O)NCC4CCN(CCO)C4)CC3)n2)cc1 (centres unmarked) [Compound 362, N-((1-(2-hydroxyethyl)pyrrolidin-3-yl)methyl)-1-(3-(4-methoxyphenyl)-1,2,4-oxadiazol-5-yl)piperidine-4-carboxamide] | + (+ >3 and <5)
10 | COc1ccc(-c2noc(N3CCC(C(=O)NCC4CCN(Cc5cccn5C)C4)CC3)n2)cc1 (centres unmarked) [Compound 363, 1-(3-(4-methoxyphenyl)-1,2,4-oxadiazol-5-yl)-N-((1-((1-methyl-1H-pyrrol-2-yl)methyl)pyrrolidin-3-yl)methyl)piperidine-4-carboxamide] | + (+ >3 and <5)
11 | COc1ccc(-c2noc(N3CCC(C(=O)NCC4CCN(Cc5nccs5)C4)CC3)n2)cc1 (centres unmarked) [Compound 364, 1-(3-(4-methoxyphenyl)-1,2,4-oxadiazol-5-yl)-N-((1-(thiazol-2-ylmethyl)pyrrolidin-3-yl)methyl)piperidine-4-carboxamide] | + (+ >3 and <5)
12 | COc1ccc(-c2noc(N3CCC(C(=O)NCC4CCN(Cc5cncc(C)c5)C4)CC3)n2)cc1 (centres unmarked) [Compound 365, 1-(3-(4-methoxyphenyl)-1,2,4-oxadiazol-5-yl)-N-((1-((5-methylpyridin-3-yl)methyl)pyrrolidin-3-yl)methyl)piperidine-4-carboxamide] | ++ (++ ≥5 and <6)
13 | COc1ccc(-c2noc(N3CCC(C(=O)NCC4CCN(CCF)C4)CC3)n2)cc1 (centres unmarked) [Compound 366, N-((1-(2-fluoroethyl)pyrrolidin-3-yl)methyl)-1-(3-(4-methoxyphenyl)-1,2,4-oxadiazol-5-yl)piperidine-4-carboxamide] | + (+ >3 and <5)
14 | COc1ccc(-c2noc(N3CCC(C(=O)NCC4CCN(CC(F)F)C4)CC3)n2)cc1 (centres unmarked) [Compound 367, N-((1-(2,2-difluoroethyl)pyrrolidin-3-yl)methyl)-1-(3-(4-methoxyphenyl)-1,2,4-oxadiazol-5-yl)piperidine-4-carboxamide] | + (+ >3 and <5)
15 | COc1ccc(-c2noc(N3CCC(C(=O)NCC4CCN(CC5CC5C)C4)CC3)n2)cc1 (centres unmarked) [Compound 368, 1-(3-(4-methoxyphenyl)-1,2,4-oxadiazol-5-yl)-N-((1-((2-methylcyclopropyl)methyl)pyrrolidin-3-yl)methyl)piperidine-4-carboxamide] | ++ (++ ≥5 and <6)
16 | COc1ccc(-c2noc(N3CCC(C(=O)NCC4CCN(C[C@@H]5CCCN5C)C4)CC3)n2)cc1 (stereo partly drawn) [Compound 369, 1-(3-(4-methoxyphenyl)-1,2,4-oxadiazol-5-yl)-N-((1-(((S)-1-methylpyrrolidin-2-yl)methyl)pyrrolidin-3-yl)methyl)piperidine-4-carboxamide] | + (+ >3 and <5)
17 | COc1ccc(-c2noc(N3CCC(C(=O)NCC4CCN(C5CCOC5)C4)CC3)n2)cc1 (centres unmarked) [Compound 370, 1-(3-(4-methoxyphenyl)-1,2,4-oxadiazol-5-yl)-N-((1-(tetrahydrofuran-3-yl)pyrrolidin-3-yl)methyl)piperidine-4-carboxamide] | + (+ >3 and <5)
18 | COc1ccc(-c2noc(N3CCC(C(=O)NCC4CCN(CC5(C)COC5)C4)CC3)n2)cc1 (centres unmarked) [Compound 371, 1-(3-(4-methoxyphenyl)-1,2,4-oxadiazol-5-yl)-N-((1-((3-methyloxetan-3-yl)methyl)pyrrolidin-3-yl)methyl)piperidine-4-carboxamide] | + (+ >3 and <5)
19 | COc1ccc(-c2noc(N3CCC(C(=O)NCC4CCN(Cc5cccs5)C4)CC3)n2)cc1 (centres unmarked) [Compound 372, 1-(3-(4-methoxyphenyl)-1,2,4-oxadiazol-5-yl)-N-((1-(thiophen-2-ylmethyl)pyrrolidin-3-yl)methyl)piperidine-4-carboxamide] | ++ (++ ≥5 and <6)
20 | COc1ccc(-c2noc(N3CCC(C(=O)NCC4CCN(Cc5cnsc5)C4)CC3)n2)cc1 (centres unmarked) [Compound 373, N-((1-(isothiazol-4-ylmethyl)pyrrolidin-3-yl)methyl)-1-(3-(4-methoxyphenyl)-1,2,4-oxadiazol-5-yl)piperidine-4-carboxamide] | ++ (++ ≥5 and <6)
21 | COc1ccc(-c2noc(N3CCC(C(=O)NCC4CCN(CC(C)C)C4)CC3)n2)cc1 (centres unmarked) [Compound 374, N-((1-isobutylpyrrolidin-3-yl)methyl)-1-(3-(4-methoxyphenyl)-1,2,4-oxadiazol-5-yl)piperidine-4-carboxamide] | + (+ >3 and <5)
22 | COc1ccc(-c2noc(N3CCC(C(=O)NCC4CCN(CC5CCCOC5)C4)CC3)n2)cc1 (centres unmarked) [Compound 375, 1-(3-(4-methoxyphenyl)-1,2,4-oxadiazol-5-yl)-N-((1-((tetrahydro-2H-pyran-3-yl)methyl)pyrrolidin-3-yl)methyl)piperidine-4-carboxamide] | ++ (++ ≥5 and <6)
23 | CCN1CCC(CNC(=O)C2CCN(c3nc(-c4ccc(OC)cc4)no3)CC2)C1 (centres unmarked) [Compound 376, N-((1-ethylpyrrolidin-3-yl)methyl)-1-(3-(4-methoxyphenyl)-1,2,4-oxadiazol-5-yl)piperidine-4-carboxamide] | − (− ≤3)
24 | COc1ccc(-c2noc(N3CCC(C(=O)NCC4CCN(CC5(C)CCOCC5)C4)CC3)n2)cc1 (centres unmarked) [Compound 377, 1-(3-(4-methoxyphenyl)-1,2,4-oxadiazol-5-yl)-N-((1-((4-methyltetrahydro-2H-pyran-4-yl)methyl)pyrrolidin-3-yl)methyl)piperidine-4-carboxamide] | + (+ >3 and <5)
25 | C#Cc1ccc(CN2CCC(CNC(=O)C3CCN(c4nc(-c5ccc(OC)cc5)no4)CC3)C2)cc1 (centres unmarked) [Compound 378, N-((1-(4-ethynylbenzyl)pyrrolidin-3-yl)methyl)-1-(3-(4-methoxyphenyl)-1,2,4-oxadiazol-5-yl)piperidine-4-carboxamide] | ++ (++ ≥5 and <6)
26 | COc1ccc(-c2noc(N3CCC(C(=O)NCC4CCN(Cc5ccc(C)o5)C4)CC3)n2)cc1 (centres unmarked) [Compound 379, 1-(3-(4-methoxyphenyl)-1,2,4-oxadiazol-5-yl)-N-((1-((5-methylfuran-2-yl)methyl)pyrrolidin-3-yl)methyl)piperidine-4-carboxamide] | ++ (++ ≥5 and <6)
27 | COc1ccc(-c2noc(N3CCC(C(=O)NCC4CCN(Cc5cccnc5C)C4)CC3)n2)cc1 (centres unmarked) [Compound 380, 1-(3-(4-methoxyphenyl)-1,2,4-oxadiazol-5-yl)-N-((1-((2-methylpyridin-3-yl)methyl)pyrrolidin-3-yl)methyl)piperidine-4-carboxamide] | ++ (++ ≥5 and <6)
28 | COc1ccc(-c2noc(N3CCC(C(=O)NCC4CCN(Cc5sccc5C)C4)CC3)n2)cc1 (centres unmarked) [Compound 381, 1-(3-(4-methoxyphenyl)-1,2,4-oxadiazol-5-yl)-N-((1-((3-methylthiophen-2-yl)methyl)pyrrolidin-3-yl)methyl)piperidine-4-carboxamide] | ++ (++ ≥5 and <6)
29 | COc1ccc(-c2noc(N3CCC(C(=O)NCC4CCN(Cc5cc(C)co5)C4)CC3)n2)cc1 (centres unmarked) [Compound 382, 1-(3-(4-methoxyphenyl)-1,2,4-oxadiazol-5-yl)-N-((1-((4-methylfuran-2-yl)methyl)pyrrolidin-3-yl)methyl)piperidine-4-carboxamide] | ++ (++ ≥5 and <6)
